The text below walks through data of ChEMBL document CHEMBL1155363, “4,4-Disubstituted cyclohexylamine based CCR5 chemokine receptor antagonists as anti-HIV-1 agents” (Bioorg Med Chem Lett, 2009).

A value given as a limit tells only on which side of the number the result lay.

In this test the test system is Human immunodeficiency virus 1. The experiment in a line: Antiviral activity against HIV1 Ba-L infected in HOS cells assessed as inhibition of viral infection. In kind it is functional, organism-based. The conditions noted are these: Human immunodeficiency virus 1, Ba-L.
`Cc1ccc(S(N)(=O)=O)c(C)c1C(=O)N[C@H]1CC[C@@](CCN2[C@@H]3CC[C@H]2C[C@@H](n2c(C)nc4ccccc42)C3)(c2ccccc2)CC1`: the IC50 was determined as 2550 nM.

For `Cc1nc2ccccc2n1[C@H]1C[C@H]2CC[C@@H](C1)N2CC[C@]1(c2ccccc2)CC[C@@H](NC(=O)c2ccc(Cl)c(S(N)(=O)=O)c2)CC1`, the half-inhibitory concentration (IC50) is 1630 nM.

For `Cc1ccc(S(N)(=O)=O)c(C)c1C(=O)N[C@H]1CC[C@](CCN2[C@@H]3CC[C@H]2C[C@@H](n2c(C)nc4ccccc42)C3)(c2ccccc2)CC1`, the IC50 worked out at 1070 nM.

For `Cc1nc2ccccc2n1[C@H]1C[C@H]2CC[C@@H](C1)N2CC[C@]1(c2ccccc2)CC[C@H](NC(=O)c2ccc(F)c(S(N)(=O)=O)c2)CC1`, the IC50 was determined as 480 nM.

Turning to `CNS(=O)(=O)c1cc(Cl)c(C(=O)N[C@H]2CC[C@](CCN3[C@@H]4CC[C@H]3C[C@@H](n3c(C)nc5ccccc53)C4)(c3ccccc3)CC2)cc1F`, the IC50 came out at 510 nM.

As to `Cc1nc2ccccc2n1[C@H]1C[C@H]2CC[C@@H](C1)N2CC[C@]1(c2ccccc2)CC[C@H](NC(=O)c2cc(S(=O)(=O)NC(C)C)c(Cl)cc2F)CC1`, the concentration for half-maximal inhibition (IC50) was 590 nM.

On to `CNS(=O)(=O)c1cc(C(=O)N[C@H]2CC[C@@H](CN3[C@@H]4CC[C@H]3C[C@@H](n3c(C)nc5ccccc53)C4)CC2)c(Cl)cc1F`, for which the IC50 is > 20000 nM.

For `Cc1nc2ccccc2n1[C@H]1C[C@H]2CC[C@@H](C1)N2CC[C@]1(c2ccccc2)CC[C@H](NC(=O)c2cc(NS(C)(=O)=O)c(Cl)cc2F)CC1`, the IC50 was 1480 nM.

On to `Cc1nc2ccccc2n1[C@H]1C[C@H]2CC[C@@H](C1)N2CCC[C@]1(c2ccccc2)CC[C@H](NC(=O)c2ccc(Cl)c(S(N)(=O)=O)c2)CC1`, for which the half-maximal inhibitory concentration (IC50) worked out at 380 nM.

Turning to `Cc1ccnc(C)c1C(=O)N[C@H]1CC[C@](CCCN2[C@@H]3CC[C@H]2C[C@@H](n2c(C)nc4ccccc42)C3)(c2ccccc2)CC1`, the half-maximal inhibitory concentration (IC50) was determined as 2190 nM.

With `Cc1nc2ccccc2n1[C@H]1C[C@H]2CC[C@@H](C1)N2C[C@H]1CC[C@@H](NC(=O)c2ccc(Cl)c(S(N)(=O)=O)c2)CC1`, the IC50 is > 20000 nM.

Consider `Cc1nc2ccccc2n1[C@H]1C[C@H]2CC[C@@H](C1)N2[C@]1(C)CC[C@H](NC(=O)c2ccc(Cl)c(S(N)(=O)=O)c2)CC1`, for which the IC50 is 870 nM.

On to `Cc1nc2ccccc2n1[C@H]1C[C@H]2CC[C@@H](C1)N2[C@]1(C)CC[C@H](NC(=O)c2c(Cl)ccc(S(N)(=O)=O)c2Cl)CC1`, for which the IC50 turned out to be 20000 nM.

`Cc1nc2ccccc2n1[C@H]1C[C@H]2CC[C@@H](C1)N2CC[C@]1(c2ccccc2)CC[C@H](NC(=O)c2ccc(Cl)c(S(N)(=O)=O)c2)CC1`: the 50% inhibitory concentration (IC50) came to 58 nM.

For the molecule `Cc1nc2ccccc2n1[C@H]1C[C@H]2CC[C@@H](C1)N2CC[C@]1(c2ccccc2)CC[C@H](NC(=O)c2ccc(S(N)(=O)=O)cc2Cl)CC1`, the IC50 was determined as 230 nM.

Consider `Cc1nc2ccccc2n1[C@H]1C[C@H]2CC[C@@H](C1)N2CC[C@]1(c2ccccc2)CC[C@H](NC(=O)c2ccc(S(N)(=O)=O)cc2F)CC1`, for which the concentration for half-maximal inhibition (IC50) was found to be 1800 nM.

The IC50 is the point on the concentration scale where inhibition reaches its midpoint.
